Results reported in the supplement of paper PMC10883282.
± gives the standard deviation of the averaged measurements.

Experiments:
Assay in all cases: relative viability vs DMSO control (72 h) (fraction); higher = more viable cells
KHOS-240S = test system: KHOS-240S
Method in brief: (§1)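 Percent growth from ATPLite readings, averaged over up to triplicate wells, was used as relative viability. Sarcoma cell lines were seeded into 384-well plates for 80–90% confluence, dosed after 24 h, and kept 72 h at 37 °C, 5% CO2. Data were rescaled to a range where 1 is full and 0 is none.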

MES-SA = test system: MES-SA
Method in brief: as §1

RD = test system: RD
Method in brief: as §1

SW1353 = test system: SW1353
Method in brief: as §1

SYO-1 = test system: SYO-1
Method in brief: as §1

CC[C@@H]1C(=O)N(C)c2cnc(Nc3ccc(C(=O)N[C@H]4CC[C@H](N5CCN(CC6CC6)CC5)CC4)cc3OC)nc2N1C(C)C [Volasertib]
relative viability
Conditions | KHOS-240S | MES-SA | RD | SW1353 | SYO-1
0.00017 µM | 1.07 ± 0.016 | 0.938 ± 0.022 | 1.132 ± 0.0068 | 0.972 ± 0.035 | 0.966 ± 0.037
0.00051 µM | 1.054 ± 0.0098 | 0.966 ± 0.02 | 1.12 ± 0.025 | 0.954 ± 0.016 | 0.974 ± 0.068
0.00152 µM | 1.06 ± 0.03 | 0.936 ± 0.031 | 1.129 ± 0.0024 | 0.945 ± 0.028 | 0.958 ± 0.038
0.00457 µM | 1.06 ± 0.025 | 0.932 ± 0.051 | 1.14 ± 0.015 | 0.949 ± 0.044 | 0.912 ± 0.018
0.01372 µM | 0.979 ± 0.069 | 0.924 ± 0.048 | 1.07 ± 0.023 | 0.958 ± 0.056 | 0.549 ± 0.086
0.04115 µM | 0.319 ± 0.027 | 0.637 ± 0.043 | 0.363 ± 0.0064 | 0.902 ± 0.036 | 0.352 ± 0.019
0.1235 µM | 0.221 ± 0.0064 | 0.173 ± 0.016 | 0.212 ± 0.023 | 0.635 ± 0.017 | 0.311 ± 0.053
0.3704 µM | 0.189 ± 0.021 | 0.0889 ± 0.0028 | 0.18 ± 0.01 | 0.52 ± 0.049 | 0.131 ± 0.0098
1.111 µM | 0.171 ± 0.0043 | 0.0861 ± 0.0034 | 0.169 ± 0.017 | 0.4419 ± 0.0034 | 0.00893 ± 0.0079
3.333 µM | 0.122 ± 0.0023 | 0.072 ± 0.0067 | 0.119 ± 0.017 | 0.3712 ± 0.0033 | -0.0446 ± 0.0066
10 µM | 0.0197 ± 0.0015 | 0.0076 ± 0.00079 | 0.0206 ± 0.0011 | 0.063 ± 0.0023 | -0.0423 ± 0.0069

C#Cc1cccc(Nc2ncnc3cc(OCCOC)c(OCCOC)cc23)c1 [Erlotinib]
relative viability
Conditions | KHOS-240S | MES-SA | RD | SW1353 | SYO-1
0.00017 µM | 1.06 ± 0.016 | 0.95 ± 0.035 | 1.08 ± 0.048 | 1.02 ± 0.032 | 0.999 ± 0.029
0.00051 µM | 1.07 ± 0.035 | 0.973 ± 0.035 | 1.09 ± 0.055 | 1.03 ± 0.012 | 0.998 ± 0.021
0.00152 µM | 1.05 ± 0.036 | 0.979 ± 0.018 | 1.09 ± 0.035 | 1.043 ± 0.0096 | 0.978 ± 0.043
0.00457 µM | 1.08 ± 0.042 | 0.945 ± 0.014 | 1.08 ± 0.051 | 1.02 ± 0.022 | 0.979 ± 0.047
0.01372 µM | 1.06 ± 0.045 | 0.96 ± 0.023 | 1.07 ± 0.027 | 1.04 ± 0.043 | 0.982 ± 0.041
0.04115 µM | 1.07 ± 0.023 | 0.972 ± 0.024 | 1.09 ± 0.043 | 1.01 ± 0.038 | 0.9892 ± 0.0045
0.1235 µM | 1.087 ± 0.01 | 0.959 ± 0.035 | 1.09 ± 0.055 | 0.955 ± 0.016 | 0.967 ± 0.035
0.3704 µM | 1.08 ± 0.026 | 0.948 ± 0.04 | 1.1 ± 0.059 | 0.928 ± 0.016 | 0.991 ± 0.029
1.111 µM | 1.062 ± 0.0098 | 0.914 ± 0.026 | 1.12 ± 0.084 | 0.889 ± 0.022 | 0.962 ± 0.017
3.333 µM | 1.06 ± 0.019 | 0.687 ± 0.03 | 1.04 ± 0.055 | 0.812 ± 0.05 | 0.92 ± 0.025
10 µM | 0.949 ± 0.023 | 0.458 ± 0.017 | 0.786 ± 0.032 | 0.695 ± 0.016 | 0.724 ± 0.043

CCN(CCCOc1ccc2c(Nc3cc(CC(=O)Nc4cccc(F)c4)[nH]n3)ncnc2c1)CCOP(=O)(O)O [Barasertib]
relative viability
Conditions | KHOS-240S | MES-SA | RD | SW1353 | SYO-1
0.00017 µM | 1.04 ± 0.041 | 0.92 ± 0.011 | 1.09 ± 0.047 | 0.955 ± 0.029 | 0.939 ± 0.011
0.00051 µM | 1.02 ± 0.027 | 0.915 ± 0.0084 | 1.09 ± 0.031 | 0.972 ± 0.025 | 0.918 ± 0.013
0.00152 µM | 1.03 ± 0.028 | 0.911 ± 0.018 | 1.1 ± 0.023 | 0.939 ± 0.052 | 0.891 ± 0.014
0.00457 µM | 1 ± 0.033 | 0.892 ± 0.025 | 1.06 ± 0.047 | 0.985 ± 0.025 | 0.82 ± 0.024
0.01372 µM | 0.978 ± 0.036 | 0.692 ± 0.025 | 0.943 ± 0.04 | 0.867 ± 0.06 | 0.479 ± 0.026
0.04115 µM | 0.9 ± 0.036 | 0.448 ± 0.011 | 0.888 ± 0.033 | 0.841 ± 0.036 | 0.415 ± 0.021
0.1235 µM | 0.794 ± 0.01 | 0.448 ± 0.024 | 0.869 ± 0.03 | 0.842 ± 0.03 | 0.397 ± 0.024
0.3704 µM | 0.759 ± 0.019 | 0.447 ± 0.016 | 0.84 ± 0.034 | 0.812 ± 0.019 | 0.337 ± 0.035
1.111 µM | 0.744 ± 0.022 | 0.436 ± 0.0066 | 0.803 ± 0.03 | 0.823 ± 0.0036 | 0.319 ± 0.011
3.333 µM | 0.736 ± 0.019 | 0.444 ± 0.013 | 0.759 ± 0.031 | 0.82 ± 0.012 | 0.284 ± 0.0079
10 µM | 0.712 ± 0.044 | 0.398 ± 0.011 | 0.681 ± 0.043 | 0.8463 ± 0.0075 | 0.251 ± 0.017

C1=N/C2=N/c3ccc(OCCN4CCCC4)c(c3)COC/C=C/COCc3cccc(c3)C(=C1)N2 [Pacritinib]
relative viability
Conditions | KHOS-240S | MES-SA | RD | SW1353 | SYO-1
0.00017 µM | 1.05 ± 0.02 | 0.966 ± 0.045 | 1.08 ± 0.012 | 1.06 ± 0.02 | 1.01 ± 0.027
0.00051 µM | 1.08 ± 0.033 | 0.9661 ± 0.0081 | 1.1 ± 0.047 | 1.091 ± 0.0073 | 1.01 ± 0.011
0.00152 µM | 1.08 ± 0.039 | 0.953 ± 0.013 | 1.12 ± 0.015 | 1.08 ± 0.025 | 0.997 ± 0.048
0.00457 µM | 1.08 ± 0.028 | 0.951 ± 0.015 | 1.11 ± 0.038 | 1.03 ± 0.039 | 0.985 ± 0.047
0.01372 µM | 1.09 ± 0.055 | 0.938 ± 0.025 | 1.13 ± 0.019 | 1 ± 0.016 | 1.01 ± 0.033
0.04115 µM | 1.06 ± 0.012 | 0.936 ± 0.017 | 1.111 ± 0.0088 | 0.981 ± 0.017 | 0.952 ± 0.035
0.1235 µM | 1.06 ± 0.049 | 0.937 ± 0.041 | 1.07 ± 0.025 | 0.966 ± 0.034 | 0.932 ± 0.035
0.3704 µM | 0.985 ± 0.038 | 0.794 ± 0.039 | 0.823 ± 0.021 | 0.882 ± 0.037 | 0.748 ± 0.035
1.111 µM | 0.5636 ± 0.0026 | 0.46 ± 0.027 | 0.462 ± 0.011 | 0.775 ± 0.055 | 0.244 ± 0.0096
3.333 µM | 0.0954 ± 0.0047 | 0.0101 ± 0.0014 | 0.158 ± 0.0068 | 0.178 ± 0.015 | 0.0093 ± 0.0075
10 µM | 0.108 ± 0.0088 | 0.00167 ± 0.00038 | 0.144 ± 0.0053 | 0.0164 ± 0.0018 | 0.00973 ± 0.0084
